These results are taken from patent publication US9301521B2, “Bee attractants” (priority 2013, dated 2016).

Data set [1] relates to O. lignaria female antennae. The experiment in a line: EAG response to specific fatty acids and mixtures. Also on record: species or system Osmia lignaria. The note with it: O. lignaria (n = 12); 100 CE. From the text:
(§1) The objective of this example is to compare antennal responses of three Osmia species (O. lignaria, O. bucephala, and O. cornifrons obtained from near a Pennsylvania apple orchard) to each of three fatty acids, each combined mixture of two acids, and the combined mixture of all acids (see Table 11). Female and male bees are maintained in laboratory cages and fed honey-water ad libitum for four days. On the fourth day, one antenna at a time is removed from each chilled, live female test bee with scissors and placed on the electrode probe of a Syntech EAG (Kirchzarten, Germany). The electrode with the antenna is inserted into a glass tube into which flows humidified air, and into which a stimulus (air, a fatty acid, or fatty acid mixture) is applied.
(§2) Each of the above indicated fatty acids, purchased from Sigma-Aldrich (St. Louis, Mo.), are dissolved in ethyl alcohol at a concentration similar to that used for the Synthetic Blend. Each fatty acid and each mixture (Equistar Chemicals, LP, Houston, Tex.) is evenly applied to a circular filter paper in Petri dish (9 cm) at dose of 100 CE. A 1.5 cm^2 piece of filter paper is cut from the center of the filter paper circle. The piece of filter paper is placed into the disposable glass pipette (4.6 cm) that is used for delivery by applying a controlled puff of air over the filter paper.
(§3) Each of the single or mixtures of fatty acids described above (see Table 11) and a control (air) are tested on an antenna: Air or filter paper pieces with each fatty acid or fatty acids mixture are delivered in succession every minute until an antenna is exposed to each cue and air three times (total test period=30 minutes). The antennal responses are recorded, and their amplitudes are measured using Syntech EAG software (Kirchzarten, Germany). The antennal responses of ≦12 female bees per species are recorded. […]

Data set [2] deals with O. lignaria. Put plainly: Field tests with fatty acids on filter papers, apple orchard in Utah. The data set is classed as in vivo, Osmia lignaria. As to conditions: single fatty acid set; for females found in artificial nest sites, range: 9 sample dates; for Cells/replicate / Nests/replicate / Females/date: 400 CE per nest site; for Cells/replicate / Nests/replicate: five replicates; for Females/date: mean ± SE for 9 sample dates. From the text:
To better understand whether application of one, or some mixture of, free fatty acids to nesting material or artificial nest sites is attractive to O. lignaria, two experimental sets are generated so that one set tests for differences in bee response to each single fatty acid and the other set tests for differences in bee response to mixtures of the fatty acids described above in Table 11. Fatty acids are applied to separate filter papers so that each filter paper contains 200 CE. As a negative control, the volume of ethyl alcohol used for the other samples is applied to its own filter paper. For the experiment in an apple orchard in Utah, each small, corrugated plastic box artificial nest site (20×23×20 cm), with two bundles of 19 paper tubes each, is hung in an apple tree; nest sites are separated by one tree between them within each replicate group. To each nest site, two of the 200 CE impregnated filter papers are applied; thus, a total of 400 CE of the stimulus is present within each nest site. Each filter paper (containing either a single fatty acid, one mixture of fatty acids, or the negative control) is attached using cable ties to the front of one tube in each of the two bundles in each artificial nest site. The filter papers are replaced weekly. Each artificial nest site contains only one type of treatment. For the single fatty acid comparison, artificial nest sites are placed in the orchard in five replicates of the three treatments plus a control (i.e., four nest sites per replicate), with each artificial nest site opening facing southeast. For the mixtures of fatty acids comparison, artificial nest sites are placed in the orchard in five replicates of the four treatments plus a control (i.e., five nest sites per replicate), with each artificial nest site opening facing southeast. Both experimental sets are located in the same orchard where they are intermittently placed but separated by at least two rows of apple trees. A total of 540 female and 1000 male bees are released throughout the orchard at least one tree row from the artificial nest sites using several release box sites (with equal numbers of bees per box). Artificial nest sites are checked daily for the presence of male and female bees and for tubes with completed nests. Tubes with completed nests are removed and are replaced with fresh ones. Later, all nests containing any bee cells are examined with x-radiography to determine number of cells in each nest.

Data set [3] relates to O. bucephala female antennae. The experiment in a line: EAG response to specific fatty acids and mixtures. Also on record: species or system Osmia bucephala. As to conditions: O. bucephala (n = 8); 100 CE.
Source text: as §1, §2, §3

Data set [4] relates to O. cornifrons female antennae. Put plainly: EAG response to specific fatty acids and mixtures. Also on record: species or system Osmia cornifrons. The note with it: O. cornifrons (n = 12); 100 CE.
Source text: as §1, §2, §3

The nature of data set [5]: Evaporation rates of attractants (weight loss of vials). The data set is classed as physicochemical. How it is done:
The objective of this experiment is to quantify the loss of the fatty acids and Synthetic Blend via evaporation. Synthetic Blend is prepared as per Example 3. Decanoic acid, dodecanoic acid, and tetradecanoic acid are purchased as per Example 4. Synthetic Blend is a liquid at room temperature. Vials containing between 0.235 and 0.304 grams of either Synthetic Blend or each individual fatty acid are placed in a 40° C. incubator and a ˜30° C. incubator room with a fan and are weighed after 1, 4, 10, 24, 31, 39 and 44 days. Three vials are monitored for each attractant, and the average weight loss is calculated. All samples lose weight faster at 30° C. with airflow compared to 40° C. without airflow. After […] at 30° C. with airflow, Synthetic Blend loses only 0.57% of its weight (see FIG. 2). This loss of mass is caused mostly by evaporation of decanoic acid which comprises approximately 73% of Synthetic Blend. After 24 days, Synthetic Blend loses 9.8% of its mass and after 44 days, 17.2% of its mass. A linear relationship is found between weight loss and days for both environments (see FIG. 3).

For `CCCCCCCCCC(=O)O` [Decanoic acid, decanoic acid], the “Mean Amplitude ± SE” value in data set [1] is listed as −0.98 ± 0.06. Moreover, in data set [2], the “females found in artificial nest sites, range” value is 4-15; the Cells/replicate stood at 13.4 ± 6.13; the Nests/replicate turned out to be 2.6 ± 1.17; the Females/date stood at 10.2 ± 1.14. The “Mean Amplitude ± SE” value in data set [3] is −1.31 ± 0.10. The “Mean Amplitude ± SE” value in data set [4] is reported as −0.89 ± 0.06. Moreover, the “relative evaporation of blend components” value in data set [5] is “evaporated much faster than tetradecanoic acid and dodecanoic acid”.

For the molecule `CCCCCCCCCCCC(=O)O` [Dodecanoic acid, dodecanoic acid], the “Mean Amplitude ± SE” value in data set [1] is recorded as −0.41 ± 0.03. In data set [2], this molecule showed a Cells/replicate of 8.8 ± 7.40, a Nests/replicate of 1.4 ± 1.17 and a Females/date of 3.4 ± 0.67. The “Mean Amplitude ± SE” value in data set [3] was −0.83 ± 0.06. For the same molecule, the “Mean Amplitude ± SE” value in data set [4] is listed as −0.43 ± 0.04.

With `CCCCCCCCCCCCCC(=O)O` [Tetradecanoic acid, tetradecanoic acid], the “Mean Amplitude ± SE” value in data set [1] is reported as −0.41 ± 0.03. Moreover, in data set [2], the “females found in artificial nest sites, range” value is on record as 0-1; the Cells/replicate turned out to be 1.6 ± 1.6; the Nests/replicate turned out to be 0.2 ± 0.2; the Females/date is recorded as 0.4 ± 0.17. In addition, the “Mean Amplitude ± SE” value in data set [3] is −0.92 ± 0.07. The “Mean Amplitude ± SE” value in data set [4] is recorded as −0.43 ± 0.04.
